Laboratory results from ChEMBL document CHEMBL1201861, “Genomics of Drug Sensitity in Cancer screening data, Wellcome Trust Sanger Institute”.

Tests used:
Assay in all cases: cells
DOHH-2 = type: functional, cell-based, Homo sapiens; details: Homo sapiens, DOHH-2;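 also: growth inhibition of human DOHH-2 cells, read out with a cell viability assay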
Description: SANGER: Inhibition of human DOHH-2 cell growth in a cell viability assay.

DU-4475 = type: functional, cell-based, Homo sapiens; details: Homo sapiens, DU-4475
Description: SANGER: Inhibition of human DU-4475 cell growth in a cell viability assay.

ES4 = type: functional, cell-based, Homo sapiens; details: Homo sapiens, ES4;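 also: growth inhibition of human ES4 cells, read out by a cell viability assay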
HCC2157 = type: functional, cell-based, Homo sapiens; details: Homo sapiens, HCC2157;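 also: growth inhibition of the cancer cell line, read out as cell viability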
Description: SANGER: Inhibition of human HCC2157 cell growth in a cell viability assay.

HCE-T = type: functional, cell-based, Homo sapiens; details: Homo sapiens, HCE-T;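 also: cell viability assay read-out, reporting inhibition of HCE-T cell growth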
Description: SANGER: Inhibition of human HCE-T cell growth in a cell viability assay.

HD-MY-Z = type: functional, cell-based, Homo sapiens; details: Homo sapiens, HD-MY-Z;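 also: growth inhibition of HD-MY-Z cells, read out with a cell viability assay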
Description: SANGER: Inhibition of human HD-MY-Z cell growth in a cell viability assay.

HH = type: functional, cell-based, Homo sapiens; details: Homo sapiens, HH
Description: SANGER: Inhibition of human HH cell growth in a cell viability assay.

IA-LM = type: functional, cell-based; details: Homo sapiens;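 also: cell viability assay measuring growth inhibition of human IA-LM cells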
Description: SANGER: Inhibition of human IA-LM cell growth in a cell viability assay.

IST-MES1 = type: functional, cell-based, Homo sapiens; details: Homo sapiens, IST-MES1;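 also: growth inhibition of IST-MES1 cells, measured with a cell viability assay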
Description: SANGER: Inhibition of human IST-MES1 cell growth in a cell viability assay.

IST-SL1 = type: functional, cell-based, Homo sapiens; details: Homo sapiens, IST-SL1;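 also: growth inhibition of human IST-SL1 cells, read out with a cell viability assay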
Description: SANGER: Inhibition of human IST-SL1 cell growth in a cell viability assay.

JAR = type: functional, cell-based, Homo sapiens; details: Homo sapiens, JAR;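 also: growth inhibition of human JAR cells determined with a cell viability assay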
Description: SANGER: Inhibition of human JAR cell growth in a cell viability assay.

JVM-2 = type: functional, cell-based, Homo sapiens; details: Homo sapiens, JVM-2;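 also: growth inhibition of JVM-2 cells determined by a cell viability assay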
Description: SANGER: Inhibition of human JVM-2 cell growth in a cell viability assay.

KM-H2 = type: functional, cell-based, Homo sapiens; details: Homo sapiens, KM-H2;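 also: growth inhibition of KM-H2 cells, read out by a cell viability assay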
Description: SANGER: Inhibition of human KM-H2 cell growth in a cell viability assay.

KURAMOCHI = type: functional, cell-based, Homo sapiens; details: Homo sapiens, KURAMOCHI;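 also: growth inhibition of KURAMOCHI cells, read out with a cell viability assay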
Description: SANGER: Inhibition of human KURAMOCHI cell growth in a cell viability assay.

L-363 = type: functional, cell-based, Homo sapiens; details: Homo sapiens, L-363
LAMA-84 = type: functional, cell-based, Homo sapiens; details: Homo sapiens, LAMA-84;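 also: growth inhibition of LAMA-84 cells, read out with a cell viability assay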
LB2241-RCC = type: functional, cell-based, Homo sapiens; details: Homo sapiens, LB2241-RCC;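 also: cell viability assay measuring how strongly the cultured human renal carcinoma line is prevented from growing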
LOX IMVI = type: functional, cell-based, Homo sapiens; details: Homo sapiens, LOX IMVI
Description: SANGER: Inhibition of human LOXIMVI cell growth in a cell viability assay.

LS-513 = type: functional, cell-based, Homo sapiens; details: Homo sapiens, LS-513
Description: SANGER: Inhibition of human LS-513 cell growth in a cell viability assay.

MHH-PREB-1 = type: functional, cell-based, Homo sapiens; details: Homo sapiens, MHH-PREB-1;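 also: cell viability assay measuring inhibition of proliferation of human MHH-PREB-1 cells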
Description: SANGER: Inhibition of human MHH-PREB-1 cell growth in a cell viability assay.

MONO-MAC-6 = type: functional, cell-based, Homo sapiens; details: Homo sapiens, MONO-MAC-6;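 also: cell viability assay measuring growth inhibition of human MONO-MAC-6 cells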
Description: SANGER: Inhibition of human MONO-MAC-6 cell growth in a cell viability assay.

MV4-11 = type: functional, cell-based, Homo sapiens, MV-4-11; details: Homo sapiens, MV4-11;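 also: cell viability readout measuring growth inhibition of human MV-4-11 cells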
Description: SANGER: Inhibition of human MV-4-11 cell growth in a cell viability assay.

MZ7-mel = type: functional, cell-based, Homo sapiens; details: Homo sapiens, MZ7-mel;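 also: growth inhibition of human MZ7-mel cells, measured by a cell viability assay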
Description: SANGER: Inhibition of human MZ7-mel cell growth in a cell viability assay.

Mo = type: functional, cell-based, Homo sapiens; details: Homo sapiens, Mo
Description: SANGER: Inhibition of human Mo-T cell growth in a cell viability assay.

NCI-H1155 = type: functional, cell-based, Homo sapiens; details: Homo sapiens, NCI-H1155;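 also: cell growth inhibition measured by a viability assay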
Description: SANGER: Inhibition of human NCI-H1155 cell growth in a cell viability assay.

NCI-H1299 = type: functional, cell-based; details: Homo sapiens;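 also: growth inhibition of human NCI-H1299 cells, read out by a cell viability assay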
NCI-H1650 = type: functional, cell-based, Homo sapiens; details: Homo sapiens, NCI-H1650;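 also: growth inhibition of human NCI-H1650 cells measured by a cell viability assay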
Description: SANGER: Inhibition of human NCI-H1650 cell growth in a cell viability assay.

NCI-H226 = type: functional, cell-based, Homo sapiens; details: Homo sapiens, NCI-H226;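 also: cell viability read-out used to gauge growth inhibition of the cells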
Description: SANGER: Inhibition of human NCI-H226 cell growth in a cell viability assay.

NCI-H23 = type: functional, cell-based, Homo sapiens; details: Homo sapiens, NCI-H23;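 also: cell viability assay measuring growth inhibition of NCI-H23 cells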
Description: SANGER: Inhibition of human NCI-H23 cell growth in a cell viability assay.

NCI-H720 = type: functional, cell-based, Homo sapiens; details: Homo sapiens, NCI-H720;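 also: growth inhibition of human NCI-H720 cells determined by a cell viability assay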
Description: SANGER: Inhibition of human NCI-H720 cell growth in a cell viability assay.

NCI-N87 = type: functional, cell-based; details: Homo sapiens;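 also: growth inhibition of human NCI-N87 cells, read out with a cell viability assay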
Description: SANGER: Inhibition of human NCI-N87 cell growth in a cell viability assay.

SNU-5 = type: functional, cell-based, Homo sapiens; details: Homo sapiens, SNU-5;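 also: cell viability readout used to measure growth inhibition in human NCI-SNU-5 cells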
Description: SANGER: Inhibition of human NCI-SNU-5 cell growth in a cell viability assay.

NH-12 = type: functional, cell-based, Homo sapiens; details: Homo sapiens, NH-12;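 also: growth inhibition of NH-12 cells, read out with a cell viability assay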
Description: SANGER: Inhibition of human NH-12 cell growth in a cell viability assay.

ONS-76 = type: functional, cell-based, Homo sapiens; details: Homo sapiens, ONS-76;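 also: growth inhibition of human ONS-76 cells, read out with a cell viability assay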
Description: SANGER: Inhibition of human ONS-76 cell growth in a cell viability assay.

OS-RC-2 = type: functional, cell-based, Homo sapiens; details: Homo sapiens, OS-RC-2;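 also: growth inhibition of human OS-RC-2 cells, measured by a cell viability assay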
Description: SANGER: Inhibition of human OS-RC-2 cell growth in a cell viability assay.

RPMI-8866 = type: functional, cell-based, Homo sapiens; details: Homo sapiens, RPMI-8866
SBC-1 = type: functional, cell-based, Homo sapiens; details: Homo sapiens, SBC-1;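 also: cell viability assay measuring growth inhibition of the SBC-1 cell line, IC50 being the concentration that halves growth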
Description: SANGER: Inhibition of human SBC-1 cell growth in a cell viability assay.

SCC-15 = type: functional, cell-based, Homo sapiens; details: Homo sapiens, SCC-15;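 also: growth inhibition of SCC-15 cells, read out with a cell viability assay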
SK-N-FI = type: functional, cell-based, Homo sapiens; details: Homo sapiens, SK-N-FI;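 also: cell viability assay measuring growth inhibition of human SK-N-FI cells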
Description: SANGER: Inhibition of human SK-N-FI cell growth in a cell viability assay.

SK-PN-DW = type: functional, cell-based, Homo sapiens; details: Homo sapiens, SK-PN-DW;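 also: growth inhibition measured with a viability assay on these cells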
SK-UT-1 = type: functional, cell-based, Homo sapiens; details: Homo sapiens, SK-UT-1;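 also: growth inhibition of SK-UT-1 cells, measured by a cell viability assay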
Description: SANGER: Inhibition of human SK-UT-1 cell growth in a cell viability assay.

697 = type: functional, cell-based, Homo sapiens; details: Homo sapiens
8-MG-BA = type: functional, cell-based, Homo sapiens; details: Homo sapiens, 8-MG-BA;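 also: growth inhibition of 8-MG-BA cells, read out with a cell viability assay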
Description: SANGER: Inhibition of human 8-MG-BA cell growth in a cell viability assay.

A498 = type: functional, cell-based, Homo sapiens; details: Homo sapiens, A498;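 also: growth inhibition of human A498 cells, read out with a cell viability assay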
Description: SANGER: Inhibition of human A498 cell growth in a cell viability assay.

ACN = type: functional, cell-based, Homo sapiens; details: Homo sapiens, ACN;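 also: growth inhibition of the human ACN cell line, read out via cell viability testing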
Description: SANGER: Inhibition of human ACN cell growth in a cell viability assay.

BB30-HNC = type: functional, cell-based, Homo sapiens; details: Homo sapiens, BB30-HNC;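 also: growth inhibition of the cultured cell line, read out by a cell viability assay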
Description: SANGER: Inhibition of human BB30-HNC cell growth in a cell viability assay.

C8166 = type: functional, cell-based, Homo sapiens; details: Homo sapiens, C8166;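 also: growth inhibition of human C8166 cells measured by a cell viability assay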
Description: SANGER: Inhibition of human C8166 cell growth in a cell viability assay.

no-10 = type: functional, cell-based, Homo sapiens; details: Homo sapiens;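 also: growth inhibition of no-10 cells, read out with a cell viability assay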
Description: SANGER: Inhibition of human no-10 cell growth in a cell viability assay.

CCRF-CEM = type: functional, cell-based, Homo sapiens; details: Homo sapiens, CCRF-CEM;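 also: inhibition of CCRF-CEM cell growth, measured by a cell viability assay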
Description: SANGER: Inhibition of human CCRF-CEM cell growth in a cell viability assay.

C[C@@H](Oc1cc(-c2cnn(C3CCNCC3)c2)cnc1N)c1c(Cl)ccc(F)c1Cl [CRIZOTINIB]
IC50 (DOHH-2): > 2 µM | IC50 (DU-4475): > 2 µM | IC50 (ES4): > 2 µM | IC50 (HCC2157): > 2 µM | IC50 (HCE-T): > 2 µM | IC50 (HD-MY-Z): > 2 µM | IC50 (HH): > 2 µM | IC50 (IA-LM): > 2 µM | IC50 (IST-MES1): > 2 µM | IC50 (IST-SL1): > 2 µM | IC50 (JAR): > 2 µM | IC50 (JVM-2): > 2 µM | IC50 (KM-H2): > 2 µM | IC50 (KURAMOCHI): > 2 µM | IC50 (L-363): > 2 µM | IC50 (LAMA-84): 1.38 µM | IC50 (LB2241-RCC): > 2 µM | IC50 (LOX IMVI): > 2 µM | IC50 (LS-513): > 2 µM | IC50 (MHH-PREB-1): > 2 µM | IC50 (MONO-MAC-6): > 2 µM | IC50 (MV4-11): > 2 µM | IC50 (MZ7-mel): > 2 µM | IC50 (Mo): > 2 µM | IC50 (NCI-H1155): > 2 µM | IC50 (NCI-H1299): > 2 µM | IC50 (NCI-H1650): > 2 µM | IC50 (NCI-H226): > 2 µM | IC50 (NCI-H23): > 2 µM | IC50 (NCI-H720): > 2 µM | IC50 (NCI-N87): > 2 µM | IC50 (SNU-5): 0.106 µM | IC50 (NH-12): > 2 µM | IC50 (ONS-76): > 2 µM | IC50 (OS-RC-2): > 2 µM | IC50 (RPMI-8866): > 2 µM | IC50 (SBC-1): > 2 µM | IC50 (SCC-15): > 2 µM | IC50 (SK-N-FI): > 2 µM | IC50 (SK-PN-DW): > 2 µM | IC50 (SK-UT-1): > 2 µM | IC50 697: > 2 µM | IC50 (8-MG-BA): > 2 µM | IC50 (A498): > 2 µM | IC50 (ACN): > 2 µM | IC50 (BB30-HNC): > 2 µM | IC50 (C8166): > 2 µM | IC50 (no-10): > 2 µM | IC50 (CCRF-CEM): > 2 µM
